# Test results reported in patent publication US20150307938A1, “METHOD TO IDENTIFY A NOVEL CLASS OF IMMUNOLOGIC ADJUVANTS” (Lancell, L.L.C., priority 2011, published 2015).
# System: skin
# Experiment: Affymetrix microarray of skin, DBP-4 hr and analogs vs. untreated; gene selection by log-2 fold change, Wilcoxon, Kendall tau (Tables 8, 9)
# Type: in vivo, mouse
# Settings: DBP-4 hr
smiles,measurement,setting,value
"CCCCOC(=O)c1ccccc1C(=O)OCCCC [DBP, dibutylphthalate]",DBP Expression: Nr4a2,NM_013613_at,7.45
same,DBP Expression: Ccl7,NM_013654_at,8.86
same,DBP Expression: Plk3,NM_013807_at,8.72
same,DBP Expression: Bcar3,NM_013867_at,7.96
same,DBP Expression: Clic4,NM_013885_at,9.05
same,DBP Expression: Rgs1,NM_015811_at,7.35
same,DBP Expression: Aqp3,NM_016689_at,10.49
same,DBP Expression: Map3k6,NM_016693_at,8.79
same,DBP Expression: Krt35,NM_016880_at,5.45
same,DBP Expression: Ccl20,NM_016960_at,11.11
same,DBP Expression: Nfil3,NM_017373_at,8.13
same,DBP Expression: Arc,NM_018790_at,6.81
same,DBP Expression: Cd86,NM_019388_at,7.42
same,DBP Expression: Nfkb2,NM_019408_at,8.26
same,DBP Expression: Ramp3,NM_019511_at,7.94
same,DBP Expression: Pde4b,NM_019840_at,8.96
same,DBP Expression: Clec7a,NM_020008_at,9.14
same,DBP Expression: Angptl4,NM_020581_at,9.51
same,DBP Expression: Pmaip1,NM_021451_at,8.41
same,DBP Expression: Gpr35,NM_022320_at,5.63
same,DBP Expression: Ptges,NM_022415_at,8.31
same,DBP Expression: Cxcl16,NM_023158_at,8.99
same,DBP Expression: Zfp593,NM_024215_at,6.14
same,DBP Expression: Pqlc1,NM_025861_at,10.20
same,DBP Expression: Efhd2,NM_025994_at,10.57
same,DBP Expression: Slc39a8,NM_026228_at,6.13
same,DBP Expression: Dusp6,NM_026268_at,10.59
same,DBP Expression: 1810011010Rik,NM_026931_at,9.68
same,DBP Expression: Pvr,NM_027514_at,6.71
same,DBP Expression: 1810055G02Rik,NM_028077_at,8.40
same,DBP Expression: Rnf19b,NM_029219_at,8.99
same,DBP Expression: Slc10a6,NM_029415_at,9.28
same,DBP Expression: Abcc3,NM_029600_at,7.87
same,DBP Expression: 1600029D21Rik,NM_029639_at,10.16
same,DBP Expression: Klrb 1b,NM_030599_at,6.58
same,DBP Expression: Il6,NM_031168_at,6.41
same,DBP Expression: Bcl3,NM_033601_at,8.92
same,DBP Expression: Epgn,NM_053087_at,9.09
same,DBP Expression: Otud7a,NM_130880_at,7.23
same,DBP Expression: Ier3,NM_133662_at,11.24
same,DBP Expression: Prss22,NM_133731_at,7.96
same,DBP Expression: Errfi1,NM_133753_at,10.14
same,DBP Expression: Uap1,NM_133806_at,9.16
same,DBP Expression: Stk17b,NM_133810_at,9.70
same,DBP Expression: Havcr2,NM_134250_at,7.20
same,DBP Expression: Cytip,NM_139200_at,9.90
same,DBP Expression: Slc39a14,NM_144808_at,6.31
same,DBP Expression: Cd207,NM_144943_at,10.32
same,DBP Expression: Pyy,NM_145435_at,9.16
same,DBP Expression: Deptor,NM_145470_at,9.12
same,DBP Expression: Smox,NM_145533_at,8.07
same,DBP Expression: Arid5a,NM_145996_at,7.61
same,DBP Expression: Slc25a25,NM_146118_at,8.10
same,DBP Expression: Kctd11,NM_153143_at,9.35
same,DBP Expression: Dusp7,NM_153459_at,8.85
same,DBP Expression: Adamts4,NM_172845_at,6.21
same,DBP Expression: Fam43a,NM_177632_at,9.07
same,DBP Expression: Coro2a,NM_178893_at,7.02
same,DBP Expression: Gyk,NM_212444_at,9.63
same,DBP Expression: Il4ra,NM_001008700_at,7.47
same,DBP Expression: Il1rl1,NM_001025602_at,8.40
same,DBP Expression: Zbtb16,NM_001033324_at,6.93
same,DBP Expression: Deptor,NM_001037937_at,9.12
same,DBP Expression: Cd44,NM_001039150_at,9.82
same,DBP Expression: Cd44,NM_001039151_at,9.82
same,DBP Expression: Irs2,NM_001081212_at,8.35
same,DBP Expression: Pprc1,NM_001081214_at,8.81
same,DBP Expression: Gpr35,NM_001104529_at,5.63
same,DBP Expression: Crem,NM_001110850_at,6.91
same,DBP Expression: Crem,NM_001110853_at,6.26
same,DBP Expression: Crem,NM_001110854_at,6.91
same,DBP Expression: Crem,NM_001110855_at,6.91
same,DBP Expression: Crem,NM_001110856_at,6.91
same,DBP Expression: Crem,NM_001110857_at,6.26
same,DBP Expression: Crem,NM_001110858_at,6.26
same,DBP Expression: Crem,NM_001110859_at,6.26
same,DBP Expression: Slc39a8,NM_001135149_at,6.13
same,DBP Expression: Slc39a8,NM_001135150_at,6.13
same,DBP Expression: Slc39a14,NM_001135151_at,6.31
same,DBP Expression: Slc39a14,NM_001135152_at,6.31
same,DBP Expression: Nr4a2,NM_001139509_at,7.45
same,DBP Expression: Ccl20,NM_001159738_at,11.11
same,DBP Expression: Slc25a25,NM_001164357_at,8.10
same,DBP Expression: Slc25a25,NM_001164358_at,8.10
same,DBP Expression: Pqlc1,NM_001164420_at,10.20
same,DBP Expression: Pqlc1,NM_001164421_at,10.20
same,DBP Expression: Pqlc1,NM_001164422_at,10.20
same,DBP Expression: Coro2a,NM_001164804_at,7.02
same,DBP Expression: Tnfaip3,NM_001166402_at,7.22
